Where two headings read alike, the source gives them in different places.
Legend:
[1] = cited from earlier work
onychomycosis = conditions: continuous therapy (ingestion); cited from earlier work
Onychomycosis fungi = experiment: Addition of undecylenic acid or hydroquinone to cyanoacrylate ester on infected nails; type: in vivo; conditions: for effect on yellow color of infected nails: added to cyanoacrylate ester

2-ETHYL CYANO ACRYLATE
Soluble In ([1]; Cured State): Pacer X-8 Debonder, Acetone, | Soluble In ([1]; Liquid State): Acetone, MEK, Nitromethane

CN(C/C=C/C#CC(C)(C)C)Cc1cccc2ccccc12 [Lamisil, terbinafine]
Cure of all nails (share of subjects) (onychomycosis): 25% | complete cure (onychomycosis): 41% | mycological cure (onychomycosis): 71%

Oc1ccc(O)cc1 [hydroquine]
effect on yellow color of infected nails (Onychomycosis fungi): remove the yellow-color of infected nails

C=CCCCCCCCCC(=O)O [undecylenic acid]
effect on yellow color of infected nails (Onychomycosis fungi): remove the yellow-color of infected nails | effect on spread of infection (Onychomycosis fungi; addition of 1-12%, preferably 2-10%): inhibit the spread of infection
